Source: publication PMC6150173, “Tryptophan-Containing Cyclic Decapeptides with Activity against Plant Pathogenic Bacteria” (Molecules : A Journal of Synthetic Chemistry and Natural …, 2017)
Where “and” joins values, the source holds several entries; their conditions need not be identical. Equal entries are not always repeated. Peptide text beside a SMILES is read from it.

What was measured:
[1] = system: Pseudomonas syringae pv. syringae, Xanthomonas axonopodis pv. vesicatoria, and Erwinia amylovora; details: cited from earlier work
Text: Combinatorial chemistry constitutes a powerful tool to obtain peptides with improved biological activity against plant pathogens. In particular, we have employed this methodology to design and synthesize a library of cyclic decapeptides with general structure c(X5-Phe-X3-Gln) where X is Lys or Leu. Analysis of internal structural features together with a design of experiments (DOE) allowed establishing the sequence pattern for an optimal biological activity, i.e., c(X^1X^2X^3X^4LysPheLysLysLeuGln) where X^2 ≠ X^3 and X^4 = Lys. […] Cyclic peptides are preferred candidates due to their high conformational rigidity and proteolytic stability. In a previous work, a library of 66 Phe-containing cyclic decapeptides was synthesized from which sequences with high activity against E. amylovora, P. syringae pv. syringae, and X. axonopodis pv. vesicatoria were identified, highlighting c(LysLysLeuLysLysPheLysLysLeuGln) ... || The results obtained support the notion that subtle changes in a peptide sequence may lead to a significant modification of its biological activity. Thus, for example, the Phe→Trp substitution in the lead peptides c(LysLysLeuLysLysPheLysLysLeuGln) (BPC194) and c(LysLeuLysLysLysPheLysLysLeuGln) (BPC198) caused a reduction of the activity. […]

[2] = system: Erwinia amylovora PMV6076; assay: Antibacterial activity (MIC), in vitro growth inhibition; assay type: cell-based; details: Table S1, MIC range
Summary of the method: (§1)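 MIC determined by in vitro growth inhibition across 0.8, 1.6, 3.1, 6.2, 12.5, 25 and 50 μM peptide. Strains tested: E. amylovora PMV6076, P. syringae pv. syringae EPS94 and X. axonopodis pv. vesicatoria 2133-2.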

[3] = system: Pseudomonas syringae pv. syringae EPS94; assay: as above; assay type: cell-based; details: Table S1, MIC range
Summary of the method: as §1

[4] = system: Xanthomonas axonopodis pv. vesicatoria 2133-2; assay type: cell-based; details: Table S1, MIC range
Summary of the method: as §1

[5] = system: erythrocyte suspensions of human blood; assay: Hemolytic activity, hemoglobin release; assay type: cell-based; details: human blood erythrocytes 5% v/v, absorbance 540 nm, percentage compared to melittin, three replicates; for Hemolysis (%) at 50 µM: peptide 50 μM (table prints 50 µM); for Hemolysis (%) at 125 µM: peptide 125 μM (table prints 125 µM)
Experimental: The hemolytic activity of the compounds was evaluated at 50 and 125 μM by determining hemoglobin release from erythrocyte suspensions of human blood (5% v/v) (Oxoid) using absorbance at 540 nm, as previously described. Three replicates for each peptide concentration were used.

| Compound | antibacterial activity in words, Phe peptides [1] | MIC Ea [2] [µM] | MIC Pss [3] [µM] | MIC Xav [4] [µM] | Hemolysis (%) at 50 µM [5] [%] | Hemolysis (%) at 125 µM [5] |
| --- | --- | --- | --- | --- | --- | --- |
| cyclo(LKKKLFKKLQ) [BPC086] | poorly active |  |  |  |  |  |
| CC(C)C[C@@H]1NC(=O)[C@H](CCCCN)NC(=O)[C@H](CCCCN)NC(=O)[C@H](CCC(N)=O)NC(=O)[C@H](CCCCN)NC(=O)[C@H](CC(C)C)NC(=O)[C@H](CC(C)C)NC(=O)[C@H](Cc2c[nH]c3ccccc23)NC(=O)[C@H](CCCCN)NC(=O)[C@H](CCCCN)NC1=O [BPC104W, c(KKLKKWLLKQ)] (cyclo(KKLKKWLLKQ)) |  | 12.5 to 25 | 6.2 to 12.5 | 6.2 to 12.5 | 2 | 3% |
| CC(C)C[C@@H]1NC(=O)[C@H](CCCCN)NC(=O)[C@H](CCCCN)NC(=O)[C@H](Cc2c[nH]c3ccccc23)NC(=O)[C@H](CCCCN)NC(=O)[C@H](CC(C)C)NC(=O)[C@H](CC(C)C)NC(=O)[C@H](CCCCN)NC(=O)[C@H](CCCCN)NC(=O)[C@H](CCC(N)=O)NC1=O [BPC088W, c(KKLLKWKKLQ)] (cyclo(KKLLKWKKLQ)) |  | 12.5 to 25 | 6.2 to 12.5 | 1.6 to 3.1 | 14 | 19% |
| CC(C)C[C@@H]1NC(=O)[C@H](CCCCN)NC(=O)[C@H](CCCCN)NC(=O)[C@H](Cc2c[nH]c3ccccc23)NC(=O)[C@H](CCCCN)NC(=O)[C@H](CCCCN)NC(=O)[C@H](CCCCN)NC(=O)[C@H](CC(C)C)NC(=O)[C@H](CCCCN)NC(=O)[C@H](CCC(N)=O)NC1=O [BPC198W, c(KLKKKWKKLQ)] (cyclo(KKKWKKLQKL)) |  | 25 to 50 | 25 to 50 | 3.1 to 6.2 | 2 | 4% |
| CC(C)C[C@@H]1NC(=O)[C@H](CCCCN)NC(=O)[C@H](CCCCN)NC(=O)[C@H](CCC(N)=O)NC(=O)[C@H](CCCCN)NC(=O)[C@H](CCCCN)NC(=O)[C@H](CC(C)C)NC(=O)[C@H](Cc2c[nH]c3ccccc23)NC(=O)[C@H](CC(C)C)NC(=O)[C@H](CCCCN)NC1=O [BPC130W, c(KKLKLWLKKQ)] (cyclo(KKLKLWLKKQ)) |  | 12.5 to 25 | 6.2 to 12.5 | 1.6 to 3.1 | 1 | 2% |
| CC(C)C[C@@H]1NC(=O)[C@H](CCC(N)=O)NC(=O)[C@H](CCCCN)NC(=O)[C@H](CC(C)C)NC(=O)[C@H](CC(C)C)NC(=O)[C@H](Cc2c[nH]c3ccccc23)NC(=O)[C@H](CCCCN)NC(=O)[C@H](CCCCN)NC(=O)[C@H](CCCCN)NC(=O)[C@H](CCCCN)NC1=O [BPC108W, c(LKKKKWLLKQ)] (cyclo(KKKKWLLKQL)) |  | 6.2 to 12.5 | 1.6 to 3.1 | 1.6 to 3.1 | 4 | 5% and ≤ 8% |
| CC(C)C[C@@H]1NC(=O)[C@H](CCCCN)NC(=O)[C@H](CC(C)C)NC(=O)[C@H](Cc2c[nH]c3ccccc23)NC(=O)[C@H](CCCCN)NC(=O)[C@H](CC(C)C)NC(=O)[C@H](CCCCN)NC(=O)[C@H](CCCCN)NC(=O)[C@H](CCCCN)NC(=O)[C@H](CCC(N)=O)NC1=O [BPC072W, c(KKKLKWLKLQ)] (cyclo(KKKLKWLKLQ)) |  | 12.5 to 25 | 3.1 to 6.2 | 1.6 to 3.1 | 7 | 9% and below 20% |
| CC(C)C[C@@H]1NC(=O)[C@H](CCCCN)NC(=O)[C@H](CCCCN)NC(=O)[C@H](CCC(N)=O)NC(=O)[C@H](CC(C)C)NC(=O)[C@H](CC(C)C)NC(=O)[C@H](CCCCN)NC(=O)[C@H](Cc2c[nH]c3ccccc23)NC(=O)[C@H](CCCCN)NC(=O)[C@H](CCCCN)NC1=O [BPC064W, c(KKLKKWKLLQ)] (cyclo(KKLKKWKLLQ)) |  | 6.2 to 12.5 | 3.1 to 6.2 | 6.2 to 12.5 | 17 | 25% |
| CC(C)C[C@@H]1NC(=O)[C@H](CCCCN)NC(=O)[C@H](CC(C)C)NC(=O)[C@H](CCC(N)=O)NC(=O)[C@H](CCCCN)NC(=O)[C@H](CCCCN)NC(=O)[C@H](CC(C)C)NC(=O)[C@H](Cc2c[nH]c3ccccc23)NC(=O)[C@H](CCCCN)NC(=O)[C@H](CCCCN)NC1=O [BPC144W, c(LKLKKWLKKQ)] (cyclo(KKQLKLKKWL)) |  | 12.5 to 25 | 3.1 to 6.2 | 1.6 to 3.1 | 16 | 21% |
| CC(C)C[C@@H]1NC(=O)[C@H](CCCCN)NC(=O)[C@H](CCCCN)NC(=O)[C@H](CCC(N)=O)NC(=O)[C@H](CC(C)C)NC(=O)[C@H](CCCCN)NC(=O)[C@H](CC(C)C)NC(=O)[C@H](Cc2c[nH]c3ccccc23)NC(=O)[C@H](CCCCN)NC(=O)[C@H](CCCCN)NC1=O [BPC074W, c(KKLKKWLKLQ)] (cyclo(KKLKKWLKLQ)) |  | 12.5 to 25 | 6.2 to 12.5 | 1.6 to 3.1 | 39 | 50% |
| CC(C)C[C@@H]1NC(=O)[C@H](CCCCN)NC(=O)[C@H](CCCCN)NC(=O)[C@H](Cc2c[nH]c3ccccc23)NC(=O)[C@H](CC(C)C)NC(=O)[C@H](CC(C)C)NC(=O)[C@H](CCCCN)NC(=O)[C@H](CCCCN)NC(=O)[C@H](CCCCN)NC(=O)[C@H](CCC(N)=O)NC1=O [BPC080W, c(KKKLLWKKLQ)] (cyclo(KKKLLWKKLQ)) |  | 12.5 to 25 | 6.2 to 12.5 | 0.8 to 1.6 | 3 | 4% |
| CC(C)C[C@@H]1NC(=O)[C@H](CCCCN)NC(=O)[C@H](CCCCN)NC(=O)[C@H](Cc2c[nH]c3ccccc23)NC(=O)[C@H](CCCCN)NC(=O)[C@H](CCCCN)NC(=O)[C@H](CCCCN)NC(=O)[C@H](CC(C)C)NC(=O)[C@H](CC(C)C)NC(=O)[C@H](CCC(N)=O)NC1=O [BPC098W, c(LLKKKWKKLQ)] (cyclo(KKKWKKLQLL)) |  | 12.5 to 25 | 3.1 to 6.2 | 1.6 to 3.1 | 12 | 18% and below 20% |
| CC(C)C[C@@H]1NC(=O)[C@H](CCCCN)NC(=O)[C@H](CC(C)C)NC(=O)[C@H](Cc2c[nH]c3ccccc23)NC(=O)[C@H](CC(C)C)NC(=O)[C@H](CCCCN)NC(=O)[C@H](CCCCN)NC(=O)[C@H](CCCCN)NC(=O)[C@H](CCCCN)NC(=O)[C@H](CCC(N)=O)NC1=O [BPC070W, c(KKKKLWLKLQ)] (cyclo(KKKKLWLKLQ)) |  | 12.5 to 25 | 6.2 to 12.5 | 1.6 to 3.1 | 6 | 9% |
| cyclo(LKKKKFLLKQ) [BPC108] | poorly active |  |  |  |  |  |
| CC(C)C[C@@H]1NC(=O)[C@H](CCCCN)NC(=O)[C@H](CCCCN)NC(=O)[C@H](Cc2c[nH]c3ccccc23)NC(=O)[C@H](CCCCN)NC(=O)[C@H](CC(C)C)NC(=O)[C@H](CC(C)C)NC(=O)[C@H](CC(C)C)NC(=O)[C@H](CCCCN)NC(=O)[C@H](CCC(N)=O)NC1=O [BPC184W, c(KLLLKWKKLQ)] (cyclo(KKLQKLLLKW)) |  | 25 to 50 | 3.1 to 6.2 | 1.6 to 3.1 | 22 | 32% |
| CC(C)C[C@@H]1NC(=O)[C@H](CCCCN)NC(=O)[C@H](CCCCN)NC(=O)[C@H](CCC(N)=O)NC(=O)[C@H](CC(C)C)NC(=O)[C@H](CCCCN)NC(=O)[C@H](CCCCN)NC(=O)[C@H](Cc2c[nH]c3ccccc23)NC(=O)[C@H](CCCCN)NC(=O)[C@H](CCCCN)NC1=O [BPC194W, c(KKLKKWKKLQ)] (cyclo(KKLKKWKKLQ)) |  | 12.5 to 25 | 12.5 to 25 | 6.2 to 12.5 | 3 | 5% |
